≈ marks a conversion by molar mass, not a printed value. Positions of bridges follow the written chain, without caps; N, C: chain ends. Non-standard residues stand in square brackets, D forms with d. Residues, ends and D or L forms follow the SMILES beside them. *: point of attachment. Benzoyl(4-Ph) = O=C(c1ccc(-c2ccccc2)cc1)*; Bip = N[C@@H](Cc1ccc(-c2ccccc2)cc1)C(=O)O; dBip = N[C@H](Cc1ccc(-c2ccccc2)cc1)C(=O)O; dGly(nOct) = CCCCCCCC[C@@H](N)C(=O)O; Gly(octyl) = CCCCCCCC[C@H](N)C(=O)O; Octanoyl = CCCCCCCC(=O)*; Dab = NCC[C@H](N)C(=O)O; Bn = c1ccc(C*)cc1

The results in this text go back to ChEMBL document CHEMBL5137059, “An Intelligent Strategy with All-Atom Molecular Dynamics Simulations for the Design of Lipopeptides against Multidrug-Resistant Pseudomonas aeruginosa” (2022).

What all share (assay type): functional
Assay [1] concerns Pseudomonas aeruginosa. The assay is described as follows: Antimicrobial activity against polymyxin resistant Pseudomonas aeruginosa FADDI-PA060 assessed as microbial growth inhibition measured at 18 to 20 hrs by broth microdilution assay. Conditions: time 18-20 hrs. Background: Dilution methods test growth across graded concentrations, often in twofold steps.
Assay [2] relates to Pseudomonas aeruginosa. The assay is described as follows: Antimicrobial activity against polymyxin resistant Pseudomonas aeruginosa FADDI-PA070 assessed as microbial growth inhibition measured at 18 to 20 hrs by broth microdilution assay. The note with it: time 18-20 hrs.
In assay [3] the test system is Pseudomonas aeruginosa. The assay is described as follows: Antimicrobial activity against Pseudomonas aeruginosa PW7028 assessed as microbial growth inhibition measured after 20 hrs by CLSI-protocol based broth microdilution assay.
Assay [4] relates to Pseudomonas aeruginosa. As to the kind of experiment: Antimicrobial activity against polymyxin resistant Pseudomonas aeruginosa FADDI-PA071 assessed as microbial growth inhibition measured after 20 hrs by CLSI-protocol based broth microdilution assay.
The subject of assay [5] is Pseudomonas aeruginosa. The assay is described as follows: Disruption of membrane integrity in polymyxin resistant Pseudomonas aeruginosa FADDI-071 assessed as fold increase by measuring cellular fluorescence intensity at 8 mg/L incubated for 4 hrs by DiBAC and PI staining based flow cytometry analysis. On the technique in general: Flow cytometry measures light scatter and fluorescence of single cells or particles in a stream.

Assay [6] deals with Pseudomonas aeruginosa. As to the kind of experiment: Antimicrobial activity against polymyxin resistant Pseudomonas aeruginosa FADDI-PA065 assessed as microbial growth inhibition measured after 20 hrs by CLSI-protocol based broth microdilution assay.
The subject of assay [7] is Pseudomonas aeruginosa. As to the kind of experiment: Antimicrobial activity against Pseudomonas aeruginosa PAO1 assessed as microbial growth inhibition measured after 20 hrs by CLSI-protocol based broth microdilution assay.
Assay [8] deals with Pseudomonas aeruginosa. As to the kind of experiment: Disruption of membrane integrity in polymyxin resistant Pseudomonas aeruginosa FADDI-PA065 assessed as fold increase by measuring cellular fluorescence intensity at 8 mg/L incubated for 4 hrs by DiBAC and PI staining based flow cytometry analysis.
Assay [9] concerns Pseudomonas aeruginosa. As to the kind of experiment: Antimicrobial activity against Pseudomonas aeruginosa PAO1R assessed as microbial growth inhibition measured after 20 hrs by CLSI-protocol based broth microdilution assay.

Regarding `CCCCCCCC(=O)N[C@@H](CCN)C(=O)N[C@H](C(=O)N[C@@H](CCN)C(=O)N[C@H]1CCNC(=O)[C@H]([C@@H](C)O)NC(=O)[C@H](CCN)NC(=O)[C@H](CCN)NC(=O)[C@H](Cc2ccccc2)NC(=O)[C@@H](Cc2ccccc2)NC(=O)[C@H](CCN)NC1=O)[C@@H](C)O`, the minimum inhibitory concentration (MIC) in the assay on Pseudomonas aeruginosa [1] and in the assay with Pseudomonas aeruginosa [2] was more than 32 µg/mL in each case.
For the compound `C[C@@H](O)[C@@H]1NC(=O)[C@H](CCN)NC(=O)[C@H](CCN)NC(=O)[C@H](Cc2ccc(-c3ccccc3)cc2)NC(=O)[C@@H](Cc2ccccc2)NC(=O)[C@H](CCN)NC(=O)[C@@H](NC(=O)[C@H](CCN)NC(=O)[C@@H](NC(=O)[C@H](CCN)NC(=O)c2ccc(-c3ccccc3)cc2)[C@@H](C)O)CCNC1=O` ({Benzoyl(4-Ph)}-[Dab]T[Dab][Dab][Dab][dF][Bip][Dab][Dab]T; lactam 4-C), the minimal inhibitory concentration (MIC) in the assay with Pseudomonas aeruginosa [1] came out at 8 µg/mL (≈ 5.91 µM); in the assay with Pseudomonas aeruginosa [2], 16 µg/mL (≈ 11.8 µM).
The corresponding values for `CCCCCCCC[C@H]1NC(=O)[C@H](CCN)NC(=O)[C@@H](NC(=O)[C@H](CCN)NC(=O)[C@@H](NC(=O)[C@H](CCN)NC(=O)c2ccccc2)[C@@H](C)O)CCNC(=O)[C@H]([C@@H](C)O)NC(=O)[C@H](CCN)NC(=O)[C@H](CCN)NC(=O)[C@H](CC(C)C)NC1=O` are 32 µg/mL (≈ 26.9 µM) and 32 µg/mL (≈ 26.9 µM).
On to `CCCCCCCC[C@H]1NC(=O)[C@H](CCN)NC(=O)[C@@H](NC(=O)[C@H](CCN)NC(=O)[C@@H](NC(=O)[C@H](CCN)NC(=O)CCCCCCC)[C@@H](C)O)CCNC(=O)[C@H]([C@@H](C)O)NC(=O)[C@H](CCN)NC(=O)[C@H](CCN)NC(=O)[C@H](CC(C)C)NC1=O` (Octanoyl-[Dab]T[Dab][Dab][Dab][dGly(nOct)]L[Dab][Dab]T; lactam 4-C), for which the minimum inhibitory concentration (MIC) in the assay on Pseudomonas aeruginosa [1] was determined as 2 µg/mL (≈ 1.65 µM); in the assay with Pseudomonas aeruginosa [3] it was 4 µg/mL (≈ 3.3 µM); in the assay with Pseudomonas aeruginosa [4], 4 µg/mL (≈ 3.3 µM); in the assay with Pseudomonas aeruginosa [6], 2 µg/mL (≈ 1.65 µM); in the assay on Pseudomonas aeruginosa [2] it was 2 µg/mL (≈ 1.65 µM); with Pseudomonas aeruginosa [7] it was 4 µg/mL (≈ 3.3 µM). Further, the MIC in the assay on Pseudomonas aeruginosa [9] is 8 µg/mL (≈ 6.6 µM). The “fold change (FC)” value with Pseudomonas aeruginosa [5] and with Pseudomonas aeruginosa [8] was 18.8 each time.
With `CCCCCCCC(=O)N[C@@H](CCN)C(=O)N[C@H](C(=O)N[C@@H](CCN)C(=O)N[C@H]1CCNC(=O)[C@H]([C@@H](C)O)NC(=O)[C@H](CCN)NC(=O)[C@H](CCN)NC(=O)[C@H](Cc2ccc(-c3ccccc3)cc2)NC(=O)[C@@H](Cc2ccccc2)NC(=O)[C@H](CCN)NC1=O)[C@@H](C)O` (Octanoyl-[Dab]T[Dab][Dab][Dab][dF][Bip][Dab][Dab]T; lactam 4-C), the MIC was 8 µg/mL (≈ 6.16 µM) in the assay with Pseudomonas aeruginosa [1] and 4 µg/mL (≈ 3.08 µM) in the assay on Pseudomonas aeruginosa [2].
On the same counts, the results for `CCCCCCCC(=O)N[C@@H](CCN)C(=O)N[C@H](C(=O)N[C@@H](CCN)C(=O)N[C@H]1CCNC(=O)[C@H]([C@@H](C)O)NC(=O)[C@H](CCN)NC(=O)[C@H](CCN)NC(=O)[C@H](CC(C)C)NC(=O)[C@@H](Cc2ccc(-c3ccccc3)cc2)NC(=O)[C@H](CCN)NC1=O)[C@@H](C)O` (Octanoyl-[Dab]T[Dab][Dab][Dab][dBip]L[Dab][Dab]T; lactam 4-C) are 8 µg/mL (≈ 6.32 µM) and 4 µg/mL (≈ 3.16 µM).
Consider `CCCCCCCC[C@@H]1NC(=O)[C@@H](Cc2ccccc2)NC(=O)[C@H](CCN)NC(=O)[C@@H](NC(=O)[C@H](CCN)NC(=O)[C@@H](NC(=O)[C@H](CCN)NC(=O)CCCCCCC)[C@@H](C)O)CCNC(=O)[C@H]([C@@H](C)O)NC(=O)[C@H](CCN)NC(=O)[C@H](CCN)NC1=O` (Octanoyl-[Dab]T[Dab][Dab][Dab][dF][Gly(octyl)][Dab][Dab]T; lactam 4-C), for which the minimal inhibitory concentration (MIC) with Pseudomonas aeruginosa [1] was 2 µg/mL (≈ 1.61 µM); with Pseudomonas aeruginosa [3], 2 µg/mL (≈ 1.61 µM); in the assay on Pseudomonas aeruginosa [4], 4 µg/mL (≈ 3.21 µM); in the assay with Pseudomonas aeruginosa [6] it was 1 µg/mL (≈ 0.803 µM); with Pseudomonas aeruginosa [2], 4 µg/mL (≈ 3.21 µM); in the assay with Pseudomonas aeruginosa [7], 4 µg/mL (≈ 3.21 µM). Also, the MIC in the assay on Pseudomonas aeruginosa [9] stood at 8 µg/mL (≈ 6.42 µM). Moreover, the “fold change (FC)” value in the assay with Pseudomonas aeruginosa [5] and in the assay with Pseudomonas aeruginosa [8] was 19.6 throughout.
As to COLISTIN, the MIC in the assay with Pseudomonas aeruginosa [1] was more than 128 µg/mL; in the assay on Pseudomonas aeruginosa [3] it was 1 µg/mL; in the assay on Pseudomonas aeruginosa [4], more than 128 µg/mL; with Pseudomonas aeruginosa [6], more than 128 µg/mL; in the assay with Pseudomonas aeruginosa [2], more than 128 µg/mL; with Pseudomonas aeruginosa [7] it was 2 µg/mL. Further, in the assay on Pseudomonas aeruginosa [9], the minimal inhibitory concentration (MIC) is more than 32 µg/mL. Besides, the fold change (FC) in the assay on Pseudomonas aeruginosa [5] and in the assay on Pseudomonas aeruginosa [8] was 2.33 each time.
In the case of `CCCCCCCC(=O)N[C@@H](CCN)C(=O)N[C@H](C(=O)N[C@@H](CCN)C(=O)N[C@H]1CCNC(=O)[C@H]([C@@H](C)O)NC(=O)[C@H](CCN)NC(=O)[C@H](CCN)NC(=O)[C@H](CSCc2ccccc2)NC(=O)[C@@H](Cc2ccccc2)NC(=O)[C@H](CCN)NC1=O)[C@@H](C)O` (Octanoyl-[Dab]T[Dab][Dab][Dab][dF]C(Bn)[Dab][Dab]T; lactam 4-C), the MIC with Pseudomonas aeruginosa [1] was 32 µg/mL (≈ 25.2 µM); with Pseudomonas aeruginosa [2], more than 32 µg/mL.

By MIC is commonly meant the lowest concentration found to suppress growth.
